Source: PubChem BioAssay (NCI)
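96-well plates; 48 h exposure; 5 concentrations. Endpoints by linear interpolation between flanking doses. Not reached: highest tested concentration assigned. GI50 marks 50% less growth. At the TGI there is no net growth.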

How the values were obtained:
Experiment in all cases: DTP human tumour cell line panel, 48 h
HS 578T breast = test system: HS 578T breast
NCI/ADR-RES ovarian = test system: NCI/ADR-RES ovarian
A549 NSCLC = test system: A549 NSCLC
SK-MEL-5 melanoma = test system: SK-MEL-5 melanoma
OVCAR-8 ovarian = test system: OVCAR-8 ovarian
MALME-3M melanoma = test system: MALME-3M melanoma
HT29 colon = test system: HT29 colon
DU-145 prostate = test system: DU-145 prostate
SNB-19 CNS = test system: SNB-19 CNS
EKVX NSCLC = test system: EKVX NSCLC

O=c1cc(NC2CCN(CCCc3ccccc3)CC2)c2cc(Cl)ccc2o1
GI50 (HS 578T breast): 15.1 µM | TGI (HS 578T breast): 36 µM | GI50 (NCI/ADR-RES ovarian): 15 µM | TGI (NCI/ADR-RES ovarian): 30.4 µM | GI50 (A549 NSCLC): 13.4 µM | TGI (A549 NSCLC): 28.6 µM | GI50 (SK-MEL-5 melanoma): 12 µM | TGI (SK-MEL-5 melanoma): 24.4 µM | GI50 (OVCAR-8 ovarian): 12.1 µM | TGI (OVCAR-8 ovarian): 27.2 µM | GI50 (MALME-3M melanoma): 11.2 µM | TGI (MALME-3M melanoma): 25.4 µM | GI50 (HT29 colon): 4.6 µM | TGI (HT29 colon): 19.5 µM | GI50 (DU-145 prostate): 15.8 µM | TGI (DU-145 prostate): 29.3 µM | GI50 (SNB-19 CNS): 13.4 µM | TGI (SNB-19 CNS): 29.8 µM

O=C1NC(=O)C(CC2CCCCCCCCCCC2=O)C(=O)N1 (stereo not given)
TGI (HS 578T breast): > 100 µM | TGI (NCI/ADR-RES ovarian): > 100 µM | TGI (A549 NSCLC): > 100 µM | TGI (EKVX NSCLC): > 100 µM | TGI (SK-MEL-5 melanoma): > 100 µM | TGI (OVCAR-8 ovarian): > 100 µM | TGI (HT29 colon): > 100 µM | TGI (DU-145 prostate): > 100 µM | TGI (SNB-19 CNS): > 100 µM

CC(=O)C(=CN1CCN(C(=O)c2ccco2)C1=S)C(C)=O
GI50 (NCI/ADR-RES ovarian): 23.2 µM | TGI (NCI/ADR-RES ovarian): 56.6 µM | GI50 (A549 NSCLC): 11.2 µM | TGI (A549 NSCLC): 32.7 µM | GI50 (EKVX NSCLC): 11.2 µM | TGI (EKVX NSCLC): 28.6 µM | GI50 (SK-MEL-5 melanoma): 16.6 µM | TGI (SK-MEL-5 melanoma): 31.5 µM | GI50 (OVCAR-8 ovarian): 8.15 µM | TGI (OVCAR-8 ovarian): 45.1 µM | GI50 (MALME-3M melanoma): 20.7 µM | TGI (MALME-3M melanoma): 47.9 µM | GI50 (HT29 colon): 17.1 µM | TGI (HT29 colon): 53.8 µM | GI50 (SNB-19 CNS): 30.1 µM | TGI (SNB-19 CNS): 63.6 µM

O=C(O)[C@H](NS(=O)(=O)c1ccc([N+](=O)[O-])cc1)c1ccccc1
TGI (A549 NSCLC): > 100 µM | TGI (EKVX NSCLC): > 100 µM | TGI (SK-MEL-5 melanoma): > 100 µM | TGI (OVCAR-8 ovarian): > 100 µM | TGI (MALME-3M melanoma): > 100 µM | TGI (HT29 colon): > 100 µM | TGI (SNB-19 CNS): > 100 µM

O=C(NCO)NCOCn1c(=O)n(CO)c(=O)n(CO)c1=O
TGI (A549 NSCLC): > 100 µM | TGI (EKVX NSCLC): > 100 µM | TGI (SK-MEL-5 melanoma): > 83 µM | TGI (OVCAR-8 ovarian): > 100 µM | TGI (MALME-3M melanoma): > 74 µM | TGI (HT29 colon): 99.7 µM | TGI (SNB-19 CNS): > 31.6 µM

Cc1c(C(=O)/C=C/c2ccccc2)[n+](=O)c2ccccc2n1[O-]
TGI (A549 NSCLC): 43.2 µM | TGI (EKVX NSCLC): 29.5 µM | TGI (OVCAR-8 ovarian): 28.7 µM | TGI (MALME-3M melanoma): 33.6 µM | TGI (HT29 colon): 35.7 µM | TGI (SNB-19 CNS): 31.8 µM

O=C(/C=C\c1ccc(NCc2ccc(C(=O)O)cc2)cc1)CCl
GI50 (HS 578T breast): 15.7 µM | TGI (HS 578T breast): 45.6 µM | GI50 (NCI/ADR-RES ovarian): 17.8 µM | TGI (NCI/ADR-RES ovarian): 39.6 µM | GI50 (A549 NSCLC): 17.2 µM | TGI (A549 NSCLC): 33 µM | GI50 (SK-MEL-5 melanoma): 17.2 µM | TGI (SK-MEL-5 melanoma): 34.5 µM | GI50 (OVCAR-8 ovarian): 6.98 µM | TGI (OVCAR-8 ovarian): 19.9 µM | GI50 (HT29 colon): 18.9 µM | TGI (HT29 colon): 37.8 µM | GI50 (DU-145 prostate): 17.3 µM | TGI (DU-145 prostate): 31.9 µM | GI50 (SNB-19 CNS): 15.3 µM | TGI (SNB-19 CNS): 29.1 µM

c1ccc(C2Nc3ccccc3C3OCCCC23)cc1 (stereo not given)
TGI (A549 NSCLC): > 100 µM | TGI (EKVX NSCLC): 68.4 µM | TGI (SK-MEL-5 melanoma): 31.5 µM | TGI (OVCAR-8 ovarian): 44.3 µM | TGI (MALME-3M melanoma): > 100 µM | TGI (SNB-19 CNS): > 100 µM

CCCCCCCCCCCCCCCCCCOc1ccccc1CC(=O)OCC[N+]1(C)CCCC1
GI50 (HS 578T breast): 2.41 µM | TGI (HS 578T breast): 7.01 µM | GI50 (NCI/ADR-RES ovarian): 15.1 µM | TGI (NCI/ADR-RES ovarian): 42.4 µM | GI50 (EKVX NSCLC): 3.38 µM | TGI (EKVX NSCLC): 16.4 µM | GI50 (MALME-3M melanoma): 2.08 µM | TGI (MALME-3M melanoma): 5.22 µM | GI50 (DU-145 prostate): 2.21 µM | TGI (DU-145 prostate): 5.29 µM

O=C1Nc2ccc(F)cc2/C1=C/c1ccc[nH]1
GI50 (HS 578T breast): > 25 µM | TGI (HS 578T breast): > 25 µM | GI50 (NCI/ADR-RES ovarian): > 25 µM | TGI (NCI/ADR-RES ovarian): > 25 µM | GI50 (A549 NSCLC): > 25 µM | TGI (A549 NSCLC): > 25 µM | GI50 (SK-MEL-5 melanoma): > 25 µM | TGI (SK-MEL-5 melanoma): > 25 µM | GI50 (OVCAR-8 ovarian): > 25 µM | TGI (OVCAR-8 ovarian): > 25 µM | GI50 (MALME-3M melanoma): > 25 µM | TGI (MALME-3M melanoma): > 25 µM | GI50 (HT29 colon): > 25 µM | TGI (HT29 colon): > 25 µM | GI50 (DU-145 prostate): > 25 µM | TGI (DU-145 prostate): > 25 µM | GI50 (SNB-19 CNS): > 25 µM | TGI (SNB-19 CNS): > 25 µM

Cn1c2ccccc2c(=O)c2ccc(Cl)cc21
TGI (A549 NSCLC): > 10 µM | TGI (EKVX NSCLC): > 10 µM | TGI (SK-MEL-5 melanoma): > 10 µM | TGI (OVCAR-8 ovarian): > 10 µM | TGI (MALME-3M melanoma): > 10 µM | TGI (HT29 colon): > 10 µM | TGI (SNB-19 CNS): 4 µM

C/C(CC(=O)NCCc1ccccc1)=N\NC(=O)C[n+]1ccccc1
TGI (A549 NSCLC): > 100 µM | TGI (EKVX NSCLC): > 100 µM | TGI (SK-MEL-5 melanoma): > 100 µM | TGI (OVCAR-8 ovarian): > 100 µM | TGI (MALME-3M melanoma): > 100 µM | TGI (HT29 colon): > 100 µM

NC(=O)NCc1c(C(N)=O)ncn1Cc1ccccc1
TGI (A549 NSCLC): > 100 µM | TGI (EKVX NSCLC): > 100 µM | TGI (SK-MEL-5 melanoma): > 100 µM | TGI (OVCAR-8 ovarian): > 100 µM | TGI (HT29 colon): > 100 µM | TGI (SNB-19 CNS): > 100 µM

Cc1[nH]c2ccccc2c(=O)c1CC=C(Cl)Cl
GI50 (HS 578T breast): 24.6 µM | TGI (HS 578T breast): > 100 µM | GI50 (NCI/ADR-RES ovarian): 44.2 µM | TGI (NCI/ADR-RES ovarian): > 100 µM | GI50 (A549 NSCLC): 49.4 µM | TGI (A549 NSCLC): > 100 µM | GI50 (SK-MEL-5 melanoma): 27.5 µM | TGI (SK-MEL-5 melanoma): > 100 µM | GI50 (OVCAR-8 ovarian): 66.6 µM | TGI (OVCAR-8 ovarian): > 100 µM | GI50 (MALME-3M melanoma): > 100 µM | TGI (MALME-3M melanoma): > 100 µM | GI50 (HT29 colon): > 100 µM | TGI (HT29 colon): > 100 µM | GI50 (DU-145 prostate): 88.2 µM | TGI (DU-145 prostate): > 100 µM | GI50 (SNB-19 CNS): 25.7 µM | TGI (SNB-19 CNS): > 100 µM

CC(C)C[C@H](NC(=O)/C=C/Cn1ccc2ccccc2c1=O)B(O)O
GI50 (HS 578T breast): 5.03 µM | TGI (HS 578T breast): > 100 µM | GI50 (NCI/ADR-RES ovarian): 90.8 µM | TGI (NCI/ADR-RES ovarian): > 100 µM | GI50 (A549 NSCLC): 5.35 µM | TGI (A549 NSCLC): > 100 µM | GI50 (SK-MEL-5 melanoma): 2.36 µM | TGI (SK-MEL-5 melanoma): 6.16 µM | GI50 (OVCAR-8 ovarian): 14.2 µM | TGI (OVCAR-8 ovarian): 55.5 µM | GI50 (MALME-3M melanoma): 3.82 µM | TGI (MALME-3M melanoma): 23 µM | GI50 (DU-145 prostate): 8.78 µM | TGI (DU-145 prostate): > 100 µM | GI50 (SNB-19 CNS): 6.49 µM | TGI (SNB-19 CNS): > 100 µM

S=C1OC2CCCC[C@H]2O1 (stereo not given in full)
TGI (A549 NSCLC): > 100 µM | TGI (EKVX NSCLC): > 100 µM | TGI (SK-MEL-5 melanoma): > 100 µM | TGI (OVCAR-8 ovarian): > 100 µM | TGI (HT29 colon): > 100 µM | TGI (SNB-19 CNS): > 100 µM

O=C1/C(=C/c2cccc([N+](=O)[O-])c2)COc2ccc(Br)cc21
TGI (A549 NSCLC): > 100 µM | TGI (EKVX NSCLC): > 100 µM | TGI (SK-MEL-5 melanoma): > 100 µM | TGI (OVCAR-8 ovarian): > 100 µM | TGI (MALME-3M melanoma): > 100 µM | TGI (HT29 colon): > 100 µM

C=CC/C=C/C/C=C/CCCCCCCc1cccc(O)c1C(=O)O
TGI (A549 NSCLC): > 100 µM | TGI (EKVX NSCLC): > 100 µM | TGI (OVCAR-8 ovarian): > 100 µM | TGI (MALME-3M melanoma): > 100 µM | TGI (HT29 colon): > 100 µM | TGI (SNB-19 CNS): > 100 µM

COc1c(CCl)cc(-c2cc(=O)c3ccccc3s2)cc1CCl
TGI (HS 578T breast): 59.6 µM | TGI (NCI/ADR-RES ovarian): > 100 µM | TGI (A549 NSCLC): > 100 µM | TGI (EKVX NSCLC): > 100 µM | TGI (SK-MEL-5 melanoma): > 100 µM | TGI (OVCAR-8 ovarian): > 100 µM | TGI (DU-145 prostate): > 100 µM | TGI (SNB-19 CNS): > 88.9 µM

CCCSc1nc(COC(=O)NC)c(COC(=O)NC)n1C
TGI (NCI/ADR-RES ovarian): > 100 µM | TGI (A549 NSCLC): > 100 µM | TGI (EKVX NSCLC): > 100 µM | TGI (SK-MEL-5 melanoma): > 100 µM | TGI (OVCAR-8 ovarian): > 100 µM | TGI (MALME-3M melanoma): > 100 µM | TGI (HT29 colon): > 100 µM | TGI (SNB-19 CNS): > 100 µM
